Data taken from patent publication US7612064B2, “Sulfopyrroles” (Takeda Pharmaceutical Company Limited, priority 2003, dated 2009).

What was measured:
Jurkat [1] = assay: MTS proliferation assay; type: cell-based, human; conditions: 72 h
Method in brief: (§1)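 Cells were exposed for 72 h under culture conditions to test compounds at final concentrations of 10, 3, 1 and 0.3 μM, added in complete medium with at most 5% DMSO. MTS reagent was then added for a further 3 h, and absorbance was read at 492 nm.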

HeLa [2] = assay: MTS proliferation assay; type: cell-based, human; conditions: 72 h
Method in brief: as §1

Jurkat [3] = assay: PI staining for cell cycle distribution; type: cell-based, human; set-up: key: 0: no effect; 1: weak effect; 2: strong effect; conditions: Jurkat 3μM, 48 h
Description: (§2) 1-2*10^5 cells are seeded into 24 well tissue culture plates and incubated for 24 h prior to compound addition. […] Adherent cells are harvested by trypsinization. The cell suspensions are fixed by adding 2 parts ice cold ethanol 100% while vortexing. Then the samples are stored for>2 h at −20° C. Subsequently the cells are washed with PBS once and resuspended in 250 μl PBS containing 50 μg/ml PI (Calbiochem # 537059), then the samples are incubated at 37° C. for 30 min and subsequently analyzed on a FACSCalibur™ monitoring linear PI fluorescence activity on FL2. The readout allows the detection of a possible direct or indirect influence of the tested compounds on the cell cycle. The following events can occur: a) Generation of a subG1 peak indicative for DNA fragmentation, b) increase of the cell population arrested in G2M phase. Both events are scored by 1 for weak and 2 for strong occurrence. 0 indicates no occurrence at all.

HeLa [4] = assay: PI staining for cell cycle distribution; type: cell-based, human; set-up: key: 0: no effect; 1: weak effect; 2: strong effect; conditions: HeLa 10μM, 48 h
Description: as §2

MRC5 = assay: MTS proliferation assay; type: cell-based; conditions: MRC5, 72 h
Method in brief: as §1

Jily = assay: MTS proliferation assay; type: cell-based; conditions: 72 h
Method in brief: as §1

[5] = Hoechst 33342 nuclear staining; type: cell-based; conditions: 24 h or 48 h incubation; for Hoechst 33342 nuclear staining score, H460: H460 cells; for Hoechst 33342 nuclear staining score, HeLa: HeLa cells; for Hoechst 33342 nuclear staining score, Jily: Jily cells; for Hoechst 33342 nuclear staining score, Jurkat: Jurkat cells; for Hoechst 33342 nuclear staining score, MRC5: MRC5 cells;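 on all read-outs here: apoptotic nuclei scored 0 none 1 weak under 50% of cells 2 strong over 50% of cells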
Method in brief: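 Cells were plated in 96 well tissue culture plates in 80 μl complete medium, with 3-5*10^3 cells per well for adherent lines and 8-10*10^3 for suspension lines. Adherent cells spread for 24 h before treatment, while suspension cells were treated right after seeding. Compounds were added in 20 μl complete medium containing max 5% DMSO.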

[6] = conc 0.1 (final concentrations in μM)
[7] = conc 0.3 (final concentrations in μM)
[8] = conc 1 (final concentrations in μM)
[9] = conc 3 (final concentrations in μM)

Structure (SMILES) | IC50 (Jurkat [1]) [nM] | IC50 (HeLa [2]) [nM] | PI staining for cell cycle distribution, G2M (Jurkat [3]) | PI staining for cell cycle distribution, subG1 (Jurkat [3]) | PI staining for cell cycle distribution, G2M (HeLa [4]) | PI staining for cell cycle distribution, subG1 (HeLa [4]) | IC50 (MRC5) [nM] | Hoechst 33342 nuclear staining score, H460 [5, 6] | Hoechst 33342 nuclear staining score, H460 [5, 7] | Hoechst 33342 nuclear staining score, H460 [5, 8] | Hoechst 33342 nuclear staining score, H460 [5, 9] | Hoechst 33342 nuclear staining score, HeLa [5, 6] | Hoechst 33342 nuclear staining score, HeLa [5, 7] | Hoechst 33342 nuclear staining score, HeLa [5, 8] | Hoechst 33342 nuclear staining score, HeLa [5, 9] | Hoechst 33342 nuclear staining score, Jily [5, 6] | Hoechst 33342 nuclear staining score, Jily [5, 7] | Hoechst 33342 nuclear staining score, Jily [5, 8] | Hoechst 33342 nuclear staining score, Jily [5, 9] | Hoechst 33342 nuclear staining score, Jurkat [5, 6] | also measured
Cc1ccc(S(=O)(=O)n2cc(-c3ccc(S(N)(=O)=O)cc3)cc2-c2ccc3c(c2)OCO3)cc1 [Example 51] | < 1000 | < 1000 | 1 | 0 | 2 | 0 | < 1000 | 0 | 0 | 2 (strong activity comprising more than 50% of the cells) | 2 (strong activity comprising more than 50% of the cells) | 0 | 0 | 2 (strong activity comprising more than 50% of the cells) | 2 (strong activity comprising more than 50% of the cells) | 0 | 0 | 2 (strong activity comprising more than 50% of the cells) | 2 (strong activity comprising more than 50% of the cells) | 0 | IC50 (Jily): < 1000 nM; Hoechst 33342 nuclear staining score, Jurkat [5, 7]: 0; Hoechst 33342 nuclear staining score, Jurkat [5, 8]: 2 (strong activity comprising more than 50% of the cells); Hoechst 33342 nuclear staining score, Jurkat [5, 9]: 2 (strong activity comprising more than 50% of the cells); Hoechst 33342 nuclear staining score, MRC5 [5, 6]: 0; Hoechst 33342 nuclear staining score, MRC5 [5, 7]: 0; Hoechst 33342 nuclear staining score, MRC5 [5, 8]: 1 (weak activity comprising less than 50% of the cells); Hoechst 33342 nuclear staining score, MRC5 [5, 9]: 1 (weak activity comprising less than 50% of the cells); Hoechst 33342 nuclear staining score, PBLs [5, 6]: 0; Hoechst 33342 nuclear staining score, PBLs [5, 7]: 0; Hoechst 33342 nuclear staining score, PBLs [5, 8]: 0; Hoechst 33342 nuclear staining score, PBLs [5, 9]: 0
Cc1ccc(S(=O)(=O)n2cc(-c3cncc(C(N)=O)c3)cc2-c2cccs2)cc1 [Example 53] | < 1000 | > 1000 | 1 | 0 | 2 | 0 | > 1000 | 0 | 0 | 0 | 0 | 0 | 0 | 0 | 0 | 0 | 0 | 0 | 0 | 0 | Hoechst 33342 nuclear staining score, Jurkat [5, 7]: 0; Hoechst 33342 nuclear staining score, Jurkat [5, 8]: 0; Hoechst 33342 nuclear staining score, Jurkat [5, 9]: 0; Hoechst 33342 nuclear staining score, MRC5 [5, 6]: 0; Hoechst 33342 nuclear staining score, MRC5 [5, 7]: 0; Hoechst 33342 nuclear staining score, MRC5 [5, 8]: 0; Hoechst 33342 nuclear staining score, MRC5 [5, 9]: 0; Hoechst 33342 nuclear staining score, PBLs [5, 6]: 0; Hoechst 33342 nuclear staining score, PBLs [5, 7]: 0; Hoechst 33342 nuclear staining score, PBLs [5, 8]: 0; Hoechst 33342 nuclear staining score, PBLs [5, 9]: 0
COc1cc(-c2cc(-c3cncc(C(N)=O)c3)cn2S(=O)(=O)c2ccc(C)cc2)cc(OC)c1OC [Example 56] | < 200 | < 1000 | 1 | 0 | 2 | 0 | < 1000 | 0 | 2 (strong activity comprising more than 50% of the cells) | 2 (strong activity comprising more than 50% of the cells) | 2 (strong activity comprising more than 50% of the cells) | 0 | 0 | 2 (strong activity comprising more than 50% of the cells) | 2 (strong activity comprising more than 50% of the cells) | 0 | 2 (strong activity comprising more than 50% of the cells) | 2 (strong activity comprising more than 50% of the cells) | 2 (strong activity comprising more than 50% of the cells) | 0 | IC50 (Jily): < 1000 nM; Hoechst 33342 nuclear staining score, Jurkat [5, 7]: 2 (strong activity comprising more than 50% of the cells); Hoechst 33342 nuclear staining score, Jurkat [5, 8]: 2 (strong activity comprising more than 50% of the cells); Hoechst 33342 nuclear staining score, Jurkat [5, 9]: 2 (strong activity comprising more than 50% of the cells); Hoechst 33342 nuclear staining score, MRC5 [5, 6]: 0; Hoechst 33342 nuclear staining score, MRC5 [5, 7]: 2 (strong activity comprising more than 50% of the cells); Hoechst 33342 nuclear staining score, MRC5 [5, 8]: 2 (strong activity comprising more than 50% of the cells); Hoechst 33342 nuclear staining score, MRC5 [5, 9]: 2 (strong activity comprising more than 50% of the cells); Hoechst 33342 nuclear staining score, PBLs [5, 6]: 0; Hoechst 33342 nuclear staining score, PBLs [5, 7]: 0; Hoechst 33342 nuclear staining score, PBLs [5, 8]: 0; Hoechst 33342 nuclear staining score, PBLs [5, 9]: 0
